From patent US20090253745A1, “MODULATORS OF OCULAR OXIDATIVE STRESS” (SIRION THERAPEUTICS, INC., priority 2007, published 2009)

Experiments:
[1] = tested on: explants of wild-type mouse retina; test: In vitro model of light-mediated oxidative stress: isoprostane release from retina explants; type: cell-based; details: intense light (~10,000 Lux), 2-day incubation
Text: FIG. 6. Development of an in vitro model of light-mediated oxidative stress. An in vitro model of oxidative stress was developed to determine the therapeutic potency of the TAPP compositions. In this model, explants of wild-type mouse retina are placed into culture media and exposed to intense white light over a 2 day period. Control samples were exposed to subdued lighting (˜100 Lux). The formation of oxidized arachadonic acid (isoprostanes), which is a direct measure of oxidative stress in biological samples, was monitored with a commercially available assay kit (Cayman Chemical Company, Ann Arbor, Mich.).
FIG. 7. TAPP1 reduces light-mediated oxidative stress. The aforementioned in vitro assay of light-mediated oxidative stress was employed to determine the therapeutic potency of TAPP1. In this experiment, isoprostane released from retina explants was measured in the absence and presence of TAPP1 in subdued lighting (˜100 Lux) and during intense light exposure (˜10,000 Lux). […]
The compound TAPP1 (C18H24N4O3), MW 344.18, is formulated as described above. […] TAPP content of the supernatant is analyzed by a capillary reverse phase C18 column. […] The relative quantity of the TAPP is determined by area integration of the TAPP elution peak. […] Isoprostanes are measured with a commercially available in vitro assay kit.

SOD1 mutant mice = test: Oxidative stress biomarkers (LH, MDA, NT immunoreactivity) in eye tissue of SOD1 mutant mice after eye drop treatment; type: in vivo, mouse; details: eye drops 40 mM TAPP1 in 45% β-cyclodextrin, one drop per day, 30 treatments over 6 weeks, versus vehicle
Text: FIG. 9. TAPP1 reduces oxidative stress in SOD1 mutant mice. The evolution of oxidative stress and retinal pathology in SOD1 mutant mice, is preceded by the formation of lipid hydroperoxides (LH), and conjugates of malondialdehyde (MDA) and nitrotyrosine (NT). These conjugates are detected in situ using appropriate monoclonal antibodies. To determine the therapeutic efficacy of the TAPP compositions in vivo, we probed fixed sections of eye tissues for these biomarkers following treatment with either TAPP1 (eye drop formulation containing 40 mM TAPP1 in 45% β-cyclodextrin) or the TAPP1 vehicle (β-cyclodextrin alone). Mice (aged 3 months) were treated with one drop per day, 5 treatments per week for 6 weeks, for a total of 30 treatments. In these studies, areas of increased light intensity indicate increased amounts of LH, MDA or NT in the tissue sections.
A mouse which lacks, or is deficient in, the superoxide dismutase 1 (SOD1) enzyme, is used as a model of oxidative stress. Previous investigations have shown that the SOD1-deficient mouse manifests a phenotype which is consistent with age-related macular degeneration (i.e., formation of drusen, thickening of Bruch's membrane and choroidal neovascularization; Imamura, et. al, Proc Natl Acad Sci, 103: 11282-11287, 2006). Following examination of appropriate biomarkers of oxidative stress, the SOD mutant mice are treated with an eye drop formulation containing 40 mM TAPP1 in β-cyclodextrin. The treatment protocol is one drop per day, 5 treatments per week for 6 weeks, for a total of 30 treatments. SOD mutant mice in the control group receive only the TAPP1 vehicle. Following the treatment regime, mice are sacrificed and eyeglobes are enucleated, fixed and prepared for histological examination. The presence of oxidative stress biomarkers (lipid hydroperoxides, LH; malondialdehyde, MDA; and nitrotyrosine, NT) in the tissue sections were evaluated by immunohistochemistry (FIG. 9). […]

CC1(C)CC(OC(=O)c2cc(-c3ccncc3)n[nH]2)CC(C)(C)N1[O] [TAPP1, 1-oxyl-2,2,6,6-tetramethylpiperidin-4-yl 3-(pyridin-4-yl)-1H-pyrazole-5-carboxylate]
significantly reduced: isoprostane release from retina explants [1] | lipid hydroperoxide (LH) immunoreactivity in ocular tissue (SOD1 mutant mice) | malondialdehyde (MDA) immunoreactivity in ocular tissue (SOD1 mutant mice) | nitrotyrosine (NT) immunoreactivity in ocular tissue (SOD1 mutant mice)
